Source: US5945329A, “Customized proteases” (Carlsberg A/S, priority 1997, dated 1999)
Values belong to the molecule of their own block, whether it stands above or below them.

Legend:
[1] = target: T1, carboxypeptidase Y (CPD-Y) variant N51Q (Asn51 replaced with glutamine) (Saccharomyces cerevisiae, UniProt P00729, N162Q); assay: Aminolysis; KN(app) of nucleophile; format: biochemical, yeast; conditions: for Kn,app (H-Val-NH2 as nucleophile): Table VI, substance of the line is the substrate (leaving group varied); for Kn,app (H-Val-NH2 as nucleophile) / Kn,app: pH 7.5; for KN(app): Table III (unit as in Tables I, II), ester substrate; for KN(app) / Kn,app: amino acid nucleophile; for Kn,app: Table V, FA-Ala-OBzl as substrate
T1 construct: made in house; host or cells: S. cerevisiae W2579 (secreted)
T1 sequence (P00729 112-532 N162Q): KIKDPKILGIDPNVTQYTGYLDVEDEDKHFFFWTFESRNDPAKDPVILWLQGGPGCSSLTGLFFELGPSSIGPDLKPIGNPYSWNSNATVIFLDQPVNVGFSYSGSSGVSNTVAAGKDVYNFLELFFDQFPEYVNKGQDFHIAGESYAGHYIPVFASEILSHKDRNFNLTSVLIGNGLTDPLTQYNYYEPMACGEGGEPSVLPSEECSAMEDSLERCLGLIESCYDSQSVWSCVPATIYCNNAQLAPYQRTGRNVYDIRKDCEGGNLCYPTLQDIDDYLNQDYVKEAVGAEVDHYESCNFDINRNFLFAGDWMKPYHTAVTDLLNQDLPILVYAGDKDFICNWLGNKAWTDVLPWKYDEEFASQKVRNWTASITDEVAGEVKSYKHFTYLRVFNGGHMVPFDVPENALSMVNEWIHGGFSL
Description: (§1) Aminolysis reactions were carried out in the following way. The nucleophile was dissolved in 50 mM Hepes, 5 mM EDTA and pH was adjusted to 7.5. Five (5) μl of substrate (8 mM FA-Ala-OBzl in methanol) was added to 190 μl nucleophile solution followed by 5 μl enzyme, resulting in a substrate concentration of 0.2 mM. For reactions carried out at pH 9.5, Hepes was replaced with Ches. During the reaction, 20 μl aliquots were removed from the reaction mixture and added to 50 μl 1% trifluoroacetic acid to quench the reaction. The reactant composition was determined by HPLC using a Waters HPLC equipped with a C-18 Waters Novapac 4μ reverse phase column and various gradients of acetonitrile in 0.1% trifluoroacetic acid. The separation was monitored at 302 nm allowing the direct quantification of the products from the integrated peak areas. The composition of the reaction mixture was determined at least twice during the reaction, the first time when 20-50% (preferably 35%) of the ester substrate had been consumed in the reaction and the second time when 50-90% (preferably 80%) of the substrate had been consumed. The products were collected and identified by amino acid analysis after acid hydrolysis using a Pharmacia Alpha Plus analyzer.
(§2) Further identification was obtained by co-chromatography of authentic standard compounds. The fraction of aminolysis (fa) was expressed as the ratio between the formed aminolysis product and the sum of all products being formed, i.e., unconsumed substrate was disregarded in the calculations. The KN(app), representing the nucleophile concentration at which fa is half the maximum value (a measure for the dissociation constant of the nucleophile), and famax (the highest possible fa obtained at saturation of the enzyme with nucleophile) were determined by fitting the values of fa obtained at a minimum of seven concentrations of nucleophile to a saturation. The value of fa obtained at the highest possible nucleophile concentration is designated fasat.
(§3) Aminolysis reactions were carried out in the following way. The nucleophile was dissolved in 50 mM HEPES, 5 mM EDTA and pH was adjusted to 7.5, 5 μl substrate (8 mM FA-Ala-OBzl or FA-Ala-Xaa-OH in methanol) was added to 190 μl nucleophile solution followed by 5 μl enzyme diluted in buffer to the appropriate concentration, resulting in a substrate concentration of 0.2 mM. During the reaction, 20 μl aliquots were removed from the reaction mixture and added to 50 μl 1% trifluoroacetic acid to quench the reaction. The reactant composition was determined by HPLC using a Waters HPLC equipped with a C-18 Waters Novapac 4μ reverse phase column and various gradients of acetonitrile in 0.1% trifluoroacetic acid. The separation was monitored at 302 nm allowing the direct quantification of the products from the integrated peak areas. The products were collected and identified by amino acid analysis after acid hydrolysis (Pharmacia Alpha Plus analyzer) and by co-chromatography of authentic standards. The fraction of aminolysis (fa) was expressed as the ratio between the formed aminolysis product and the sum of all products being formed, i.e. unconsumed substrate was disregarded in the calculations. The KN,app (a measure for the dissociation constant of the nucleophile) and famax (the highest possible fa obtained at saturation with nucleophile were determined by fitting the obtained fa values to the equation fa=famax /(1+KN,app /N).

[2] = target: T2, carboxypeptidase Y (CPD-Y) variant E65A (Glu65 replaced by alanine) (Saccharomyces cerevisiae, UniProt P00729, E176A); assay: Aminolysis; KN(app) of nucleophile; format: biochemical, yeast; conditions: pH 7.5; for Kn,app (H-Val-NH2 as nucleophile): Table VI, substance of the line is the substrate (leaving group varied)
T2 construct: made in house; host or cells: S. cerevisiae W2579 (secreted)
Description: as §1, §2, §3

[3] = target: T3, carboxypeptidase Y (CPD-Y) variant N51S (Asn51 replaced with serine) (Saccharomyces cerevisiae, UniProt P00729, N162S); assay: Aminolysis; KN(app) of nucleophile; format: biochemical, yeast; conditions: Table VI; substance of the line is the substrate (leaving group varied), pH 7.5
T3 construct: made in house; host or cells: S. cerevisiae W2579 (secreted)
T3 sequence (P00729 112-532 N162S): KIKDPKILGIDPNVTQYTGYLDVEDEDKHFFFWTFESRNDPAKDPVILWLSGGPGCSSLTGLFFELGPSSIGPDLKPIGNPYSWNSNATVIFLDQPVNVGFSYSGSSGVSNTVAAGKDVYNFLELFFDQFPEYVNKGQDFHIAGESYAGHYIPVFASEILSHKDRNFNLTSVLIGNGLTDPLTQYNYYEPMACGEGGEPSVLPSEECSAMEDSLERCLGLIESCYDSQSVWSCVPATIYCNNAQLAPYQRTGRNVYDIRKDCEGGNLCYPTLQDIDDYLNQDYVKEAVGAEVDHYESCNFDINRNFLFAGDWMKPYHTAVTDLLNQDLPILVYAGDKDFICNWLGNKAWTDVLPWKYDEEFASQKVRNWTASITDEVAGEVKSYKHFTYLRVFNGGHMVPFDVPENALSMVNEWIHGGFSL
Description: as §1, §2, §3

[4] = target: T4, yeast carboxypeptidase Y (CPD-Y), wild type (SEQ ID NO:32) (Saccharomyces cerevisiae, UniProt P00729); assay: Aminolysis of ester/peptide substrates; KN(app) of nucleophile; format: biochemical; conditions: for Kn,app (H-Val-NH2 as nucleophile): Table VI, substance of the line is the substrate (leaving group varied); for Kn,app: Table V, FA-Ala-OBzl as substrate
T4 construct: purchased Carlbiotech, Copenhagen, Denmark
T4 sequence (P00729 112-532): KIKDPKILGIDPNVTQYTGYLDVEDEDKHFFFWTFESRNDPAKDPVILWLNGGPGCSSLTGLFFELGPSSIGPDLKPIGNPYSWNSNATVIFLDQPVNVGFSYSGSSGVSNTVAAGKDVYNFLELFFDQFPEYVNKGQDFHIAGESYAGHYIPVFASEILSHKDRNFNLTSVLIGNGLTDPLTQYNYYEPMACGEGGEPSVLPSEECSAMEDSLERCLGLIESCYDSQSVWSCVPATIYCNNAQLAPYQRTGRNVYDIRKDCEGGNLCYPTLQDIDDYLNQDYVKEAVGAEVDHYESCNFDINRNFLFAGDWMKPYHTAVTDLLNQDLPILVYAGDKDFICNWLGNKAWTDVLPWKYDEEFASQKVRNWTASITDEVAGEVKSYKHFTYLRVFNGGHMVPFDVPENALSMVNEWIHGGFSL
Description: as §1, §2, §3

[5] = target: FA-Ala-Val-OH
[6] = target: FA-Ala-Leu-OH
[7] = target: FA-Ala-Phe-OH
[8] = target: T5, carboxypeptidase Y (CPD-Y) variant E145A (Glu145 replaced by alanine) (Saccharomyces cerevisiae, UniProt P00729, E256A); assay: Aminolysis; KN(app) of nucleophile; format: biochemical, yeast; conditions: pH 7.5; for Kn,app: Table V, amino acid nucleophile, FA-Ala-OBzl as substrate
T5 construct: made in house; host or cells: S. cerevisiae W2579 (secreted)
Description: as §1, §2, §3

[9] = target: FA-Ala-Ala-OH
[10] = substrate: CC(C)[C@H](NC(=O)[C@H](Cc1ccccc1)NC(=O)C=Cc1ccco1)C(=O)O; assay: Hydrolysis of FA-Phe-Val-OH; format: biochemical, yeast; conditions: other: hydrolysis of FA-Phe-Val-OH
[11] = Table II, amino acid nucleophile, substrate FA-Ala-OBzl, pH 7.5
[12] = Table III (unit as in Tables I, II), amino acid nucleophile, ester substrate

T5 sequence (P00729 112-532 E256A): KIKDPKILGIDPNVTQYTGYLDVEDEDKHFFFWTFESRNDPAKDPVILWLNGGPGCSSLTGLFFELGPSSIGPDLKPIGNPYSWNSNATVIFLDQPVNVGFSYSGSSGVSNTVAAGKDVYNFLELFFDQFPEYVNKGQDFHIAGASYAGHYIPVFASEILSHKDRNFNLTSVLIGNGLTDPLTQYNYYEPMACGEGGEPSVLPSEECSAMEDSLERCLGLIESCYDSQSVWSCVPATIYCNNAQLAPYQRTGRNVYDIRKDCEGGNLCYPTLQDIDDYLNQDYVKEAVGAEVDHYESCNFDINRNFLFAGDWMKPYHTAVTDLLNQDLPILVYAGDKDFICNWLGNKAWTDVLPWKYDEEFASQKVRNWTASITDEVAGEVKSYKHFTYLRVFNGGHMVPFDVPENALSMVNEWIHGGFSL
T2 sequence (P00729 112-532 E176A): as the sequence (P00729 112-532 E256A) above, with E65A, A145E counted along it

Molecule: C[C@H](NC(=O)[C@H](C)NC(=O)C=Cc1ccco1)C(=O)O [FA--Ala--Ala--OH, FA-Ala-Ala-OH]
Kn,app (H-Val-NH2 as nucleophile) [1]: 3.1 ± 0.1 mM | Kn,app (H-Val-NH2 as nucleophile) [2]: 5.2 ± 0.5 mM | Kn,app (H-Val-NH2 as nucleophile) [3]: 1.9 ± 0.1 mM | Kn,app (H-Val-NH2 as nucleophile) ([4]; pH 7.5): 1.8 ± 0.1 mM

famax of transpeptidation (nucleophile H-Val-NH2) [5]: 0.8 | famax of transpeptidation (nucleophile H-Val-NH2) [6]: 0.65 | famax of transpeptidation (nucleophile H-Val-NH2) [7]: 0.49
Molecule: carboxypeptidase Y mutant E145A (enzyme)

Molecule: CC(C)[C@H](N)C(=O)O [H--Val--OH, H-Val-OH]
Kn,app [8]: 79 ± 6 mM | KN(app) [1]: 61 ± 3 mM | Kn,app [1]: 61 ± 2 mM | Kn,app ([2]; Table V, amino acid nucleophile, FA-Ala-OBzl as substrate): 69 ± 2 mM | KN(app) ([4]; Table I, amino acid nucleophile, substrate FA-Ala-OBzl 0.2 mM, pH 7.5): 13 ± 1 mM | KN(app) [4, 11]: 13 ± 1 mM | KN(app) [4, 12]: 13 ± 1 mM | Kn,app ([4]; amino acid nucleophile, pH 7.5): 13 ± 1 mM | KN(app) ([4]; nucleophile with substrate FA-Ala-OBzl, pH 7.5): 13 mM

Molecule: CC(C)C[C@H](N)C(=O)O [H--Leu--OH, H-Leu-OH]
Kn,app [8]: 40 ± 2 mM | KN(app) [1]: 42 ± 1 mM | Kn,app [1]: 42 ± 1 mM | KN(app) [4, 11]: 10 ± 0.8 mM | KN(app) [4, 12]: 10 ± 1 mM | Kn,app ([4]; amino acid nucleophile, pH 7.5): 10 ± 1 mM

famax of transpeptidation (nucleophile H-Val-NH2) [5]: 0.67 | famax of transpeptidation (nucleophile H-Val-NH2) [6]: 0.71 | famax of transpeptidation (nucleophile H-Val-NH2) [9]: 0.96 | famax of transpeptidation (nucleophile H-Val-NH2) [7]: 0.66
Molecule: carboxypeptidase Y mutant E65A (enzyme)

Molecule: C[C@H](NC(=O)C=Cc1ccco1)C(=O)N[C@@H](Cc1ccccc1)C(=O)O [FA--Ala--Phe--OH, FA-Ala-Phe-OH]
Kn,app (H-Val-NH2 as nucleophile) ([8]; Table VI, substance of the line is the substrate (leaving group varied)): 4.1 ± 0.1 mM | Kn,app (H-Val-NH2 as nucleophile) [1]: 3.1 ± 0.1 mM | Kn,app (H-Val-NH2 as nucleophile) [2]: 4.7 ± 0.1 mM | Kn,app (H-Val-NH2 as nucleophile) ([4]; pH 7.5): 1.1 ± 0.1 mM

B1: carboxypeptidase Y (CPD-Y) variant N51S (Asn51 replaced with serine) (Saccharomyces cerevisiae S288C; N162S) (protein)
chain: KIKDPKILGIDPNVTQYTGYLDVEDEDKHFFFWTFESRNDPAKDPVILWLSGGPGCSSLTGLFFELGPSSIGPDLKPIGNPYSWNSNATVIFLDQPVNVGFSYSGSSGVSNTVAAGKDVYNFLELFFDQFPEYVNKGQDFHIAGESYAGHYIPVFASEILSHKDRNFNLTSVLIGNGLTDPLTQYNYYEPMACGEGGEPSVLPSEECSAMEDSLERCLGLIESCYDSQSVWSCVPATIYCNNAQLAPYQRTGRNVYDIRKDCEGGNLCYPTLQDIDDYLNQDYVKEAVGAEVDHYESCNFDINRNFLFAGDWMKPYHTAVTDLLNQDLPILVYAGDKDFICNWLGNKAWTDVLPWKYDEEFASQKVRNWTASITDEVAGEVKSYKHFTYLRVFNGGHMVPFDVPENALSMVNEWIHGGFSL
notes: made in house; host or cells: S. cerevisiae W2579 (secreted)
Km [10]: 0.17 mM | kcat [10]: 8100 min⁻¹ | kcat/Km [10]: 48000 min⁻¹ mM⁻¹
